{
  "source": "patent US9950062B2",
  "about": "“Compounds and compositions as TLR activity modulators” (priority 2009, dated 2018)",
  "key": {"[1]": {"experiment": "Confocal microscopy of aluminium hydroxide adjuvant mixed with compound", "assay_type": "physicochemical", "settings": "adjuvant 3 mg/ml, compound 0.25 mg/ml", "source_text": "Compound 1 is intrinsically fluorescent."}, "[2]": {"experiment": "Binding to aluminum hydroxide adjuvant, HPLC of supernatant", "assay_type": "physicochemical", "settings": "100 μg/dose, room temperature and 37° C., 1, 5 and 24 hours", "experimental": "The binding of the compounds of Formula (I) provided herein to aluminum-containing adjuvants at pH 9 and pH 6.5 was evaluated using HPLC to monitor the presence of the compound of Formula (I) in the supernatant.\n(§1) Compound 1 (0.5 mg/mL) was dissolved in 10 mM NaOH and added to aluminum hydroxide adjuvant (2 mg/mL) resulting in a 100 μg/dose formulation. The supernatant was evaluated with HPLC using a ballistic gradient (from 10% CH3CN-0.1% TFA to 100% CH3CN-0.1% TFA in 2.5 minutes) on a C18 ([…]×4.6 mm) ACE column at 45° C. To evaluate the effect of supernatant temperature and incubation time on binding, the supernatant was evaluated at a supernatant temperature of room temperature and at 37° C. after 1 hour, 5 hours and 24 hours. A control without aluminum hydroxide was also evaluated.\nas §1, with “Compound 5 (1” for “Compound 1 (0.5”, “to aluminium” for “to aluminum”\nas §1, with “to aluminium” for “to aluminum”, “formulation. The pH of the solution was adjusted to pH 6.5 using HCl.” for “formulation.”\nas §1, with “Compound 5 (1” for “Compound 1 (0.5”, “mM histidine buffer (1 mg/mL)” for “mM NaOH”, “to aluminium” for “to aluminum”"}, "[3]": {"experiment": "Solubility", "assay_type": "physicochemical"}, "[4]": {"experiment": "Phosphate desorption and organic solvent extraction from aluminum hydroxide, HPLC", "assay_type": "physicochemical", "experimental": "An organic solvent extraction method was used to evaluate whether compound 1 was covalently bound to aluminum hydroxide. The formulation was prepared as follows: 2 mg/ml aluminum hydroxide, 100 μg/dose compound 1, 10 mM histidine buffer) and the pH was adjusted to 9. A control formulation without aluminum hydroxide was also prepared.\nOne ml of the formulation containing Alum was mixed with 1 ml of KH2PO4 1M pH 9 (0.5M final conc, pH 9) and was left in gentle agitation overnight at 37° C. to allow desorption of compound 1 (compound 5) from the aluminum hydroxide via ligand exchange with the phosphate anions. Organic extraction was then performed: 1 ml of each sample was mixed with 1 ml of n-butanol and vortexed. After the formation of 2 phases, the upper phase (butanol) was recovered, dried with N2 and resuspended in MeOH/10 mM NaOH. HPLC analysis was run both for the formulation supernatants and for the butanol extracted samples (C18 column; 0-100% B in 2 min; A=0.1% TFA in H2O; B=0.1% TFA in ACN). […]"}, "[5]": {"experiment": "Adsorption to and desorption from aluminum hydroxide, HPLC (compound-modified alum formulation)", "assay_type": "physicochemical", "settings": "alum formulation as for compound 1", "experimental": "SDS-PAGE was used to evaluate the effect of the binding of compound 1 to aluminum hydroxide adjuvant on the ability of MenB antigens to bind to aluminum hydroxide adjuvant. Compound 1 was dissolved in 10 mM NaOH at 0.5 mg/ml final concentration. Alum and Compound 1 were combined at 1:6 (Compound 1:Alum) weight ratio in the presence of 10 mM Histidine final concentration. The pH was adjusted to 9.2 and the mixture was gently agitated for 3 hours at room temperature, allowing the reaction to occur. The mixture was centrifuged at 5000×g for 10 minutes and the supernatant discarded. The pellet (i.e. the compound 1-modified Alum) was resuspended in the initial Alum buffer to obtain the starting alum concentration. The pH was adjusted to 6.5. The modified Alum was then used for the formulation with the MenB antigens.\nThe adsorption of compound 16 and compound 17 to aluminum hydroxide was also evaluated using the alum formulation described above for compound 1. […] In addition, SDS-PAGE analysis of antigen binding in the presence of compound 16 or compound 17 was carried out as described above."}, "[6]": {"experiment": "Adsorption to aluminum hydroxide, LC-MS/MS of supernatant", "experimental": "The resulting solution was diluted 10-fold with blank histidine buffer to a final compound concentration of 0.1 mg/mL. Diluted solutions were incubated at 37° C. for 5 hours. The samples were centrifuged at 14,000 rpm for 10 minutes to pellet the insoluble. The supernatant (along with an internal standard) was then evaluated by LC-MS/MS using a ballistic gradient (from 5% CH3CN-0.5% formic acid to 95% CH3CN-1.0% formic acid in 3.5 minutes) on a Waters Atlantis dC18 (50 mm×2.1 mm) column at room temperature against a calibration curve prepared at known compound concentrations ranging from 0.005 to 50 μM. The concentration in the supernatant was calculated as % unbound to alum compared to control; the % bound to alum was calculated as 100% minus % unbound."}, "[7]": {"experiment": "Muscle levels 24 hours after intramuscular injection", "settings": "24 hours after intramuscular injection (100 μg) with protein antigens, Balb/C mice"}, "[8]": {"test_system": "strain NZ98", "experiment": "Serum bactericidal antibody (SBA) assay after immunization with 5CVMB", "assay_type": "in vivo, MenB", "settings": "compound pre-adsorbed to aluminium hydroxide adjuvant (25 μg or 100 μg) vs adjuvant alone or compound alone", "experimental": "The MenB antigens are tested for in vivo immunogenic potency using a serum bactericidal antibody (SBA) assay."}, "[9]": {"test_system": "CD4+ T-cells, CD19+ B-cells", "experiment": "Activation markers on T-cells and B-cells in spleen and draining lymph nodes", "assay_type": "in vivo"}, "[10]": {"test_system": "serum cytokines (IL-6, mKC, MCP-1)", "experiment": "Serum cytokines 24 hours after immunization", "assay_type": "in vivo", "experimental": "Serum cytokines are measured 24 hours after immunization with compound 6, with or without aluminium hydroxide adjuvant, or with buffer alone. Levels of IL-6 and mKC are both about ˜4-fold higher after administration of compound 6 without adjuvant, and levels of MCP-1 are ˜20-fold higher (compared to vehicle alone). […] Similarly, adsorption to aluminium hydroxide adjuvant decreases both the proportion of CD4+ T-cells which are also CD69+ and the proportion of CD19+ B-cells which are also CD86+, and this effect is seen in both the spleen and in draining lymph nodes. For example, adsorption reduces the proportion of CD86+ B-cells from ˜75% to ˜15%."}, "[11]": {"experiment": "Systemic serum exposure after intramuscular injection", "assay_type": "in vivo", "settings": "intramuscular injection 100 μg (4 mg/kg), Balb/C mice", "experimental": "Systemic serum exposure of the compounds is followed for 24 hours."}, "[12]": {"settings": "pH 9, 10 mM NaOH, aluminum hydroxide 2 mg/mL"}, "[13]": {"settings": "10 mM histidine buffer pH 6.8, final compound concentration 0.1 mg/mL, 37° C. for 5 hours, 100% minus % unbound"}, "[14]": {"settings": "with aluminium hydroxide adjuvant"}, "[15]": {"settings": "without aluminium hydroxide adjuvant"}, "[16]": {"settings": "adsorbed to aluminium hydroxide adjuvant"}, "[17]": {"settings": "in combination with aluminium hydroxide adjuvant"}},
  "data": [
    {"smiles": "Cc1ccc2c(c1)nc(N)c1ncc(CCc3ccc(OCCCP(=O)(O)O)cc3C)cc12", "note": "[Compound 1, 3-(4-(2-(5-amino-8-methylbenzo[f][1,7]naphthyridin-2-yl)ethyl)-3-methylphenoxy)propylphosphonic acid]", "values": [
      {"measurement": "association with aluminium hydroxide adjuvant particles (confocal microscopy)", "setting": "[1]", "result": "associates with particles of the insoluble metal salt"},
      {"measurement": "presence of compound in supernatant when aluminum hydroxide included (HPLC)", "setting": "[2]; pH 6.5 (adjusted with HCl), aluminium hydroxide 2 mg/mL", "result": "not present in the supernatant"},
      {"measurement": "presence of compound in supernatant when aluminum hydroxide included (HPLC)", "setting": "[2]; [12]", "result": "not present in the supernatant"},
      {"measurement": "solubility in histidine buffer", "setting": "[3]", "result": "poorly soluble"},
      {"measurement": "quantity of compound in supernatant of formulation treated with KH2PO4 (desorption by phosphate anions)", "setting": "[4]; 0.5M KH2PO4 pH 9, overnight at 37° C.", "result": "Increased quantities"},
      {"measurement": "Concentration", "setting": "[4]; control/extract: n-butanol extract of control formulation without aluminum hydroxide", "result": "217 ± 1", "unit": "µg/mL"},
      {"measurement": "Concentration", "setting": "[4]; extaract: n-butanol extract of formulation with alum", "result": "27 ± 1", "unit": "µg/mL"},
      {"measurement": "Concentration", "setting": "[4]; phosphate supernatant: formulation with alum treated with 0.5M KH2PO4 pH 9 overnight at 37° C.", "result": "59 ± 1", "unit": "µg/mL"},
      {"measurement": "Concentration", "setting": "[4]; phosphate/extract: n-butanol extract of KH2PO4-treated formulation with alum", "result": "119 ± 1", "unit": "µg/mL"},
      {"measurement": "Concentration", "setting": "[4]; supernatant control: formulation without aluminum hydroxide", "result": "329 ± 1", "unit": "µg/mL"},
      {"measurement": "Concentration", "setting": "[4]; supernatant of formulation with 2 mg/ml aluminum hydroxide, 10 mM histidine buffer, pH 9", "result": "5 ± 1", "unit": "µg/mL"}
    ]},
    {"smiles": "Cc1cc(OCCOCCOCCC(F)(F)P(=O)(O)O)ccc1CCc1cnc2c(N)nc3cc(CCC(=O)O)ccc3c2c1", "note": "[Compound 17, 3-(5-amino-2-(4-(2-(2-(3,3-difluoro-3-phosphonopropoxy)ethoxy)ethoxy)-2-methylphenethyl)benzo[f][1,7]naphthyridin-8-yl)propanoic acid]", "values": [
      {"measurement": "compound in supernatant after addition of aluminum hydroxide (HPLC)", "setting": "[5]", "result": "no compound was observed in the supernatant"},
      {"measurement": "% bound to alum", "setting": "[6]; [13]", "result": 96.2, "unit": "%"},
      {"measurement": "muscle level of compound", "setting": "[7]; [14]", "result": "readily detected"},
      {"measurement": "muscle level of compound", "setting": "[7]; [15]", "result": "undetectable"}
    ]},
    {"smiles": "Cc1ccc2c(c1)nc(N)c1ncc(CCc3ccc(OCCOCCOCCC(F)(F)P(=O)(O)O)cc3C)cc12", "note": "[Compound 6, 3-(2-(2-(4-(2-(5-amino-8-methylbenzo[f][1,7]naphthyridin-2-yl)ethyl)-3-methylphenoxy)ethoxy)ethoxy)-1,1-difluoropropylphosphonic acid]", "values": [
      {"measurement": "bactericidal (SBA) titer against strain NZ98", "setting": "[8]", "result": "large increase in SBA titer"},
      {"measurement": "proportion of CD86+ B-cells", "setting": "[9]; [16]", "result": "~15", "unit": "%"},
      {"measurement": "effect of adsorption on proportion of CD4+ T-cells which are also CD69+", "setting": "[9]; adsorbed vs unadsorbed, spleen and draining lymph nodes", "result": "decreases"},
      {"measurement": "proportion of CD86+ B-cells", "setting": "[9]; without adsorption to aluminium hydroxide adjuvant", "result": "~75", "unit": "%"},
      {"measurement": "% bound to alum", "setting": "[6]; [13]", "result": 98.2, "unit": "%"},
      {"measurement": "serum IL-6 level compared to vehicle alone", "setting": "[10]; [17]", "result": "< 2", "unit": "fold"},
      {"measurement": "serum MCP-1 level compared to vehicle alone", "setting": "[10]; [17]", "result": "< 2", "unit": "fold"},
      {"measurement": "serum mKC level compared to vehicle alone", "setting": "[10]; [17]", "result": "< 2", "unit": "fold"},
      {"measurement": "serum IL-6 level compared to vehicle alone", "setting": "[10]; without adjuvant", "result": "~4", "unit": "fold"},
      {"measurement": "serum MCP-1 level compared to vehicle alone", "setting": "[10]; without adjuvant", "result": "~20", "unit": "fold"},
      {"measurement": "serum mKC level compared to vehicle alone", "setting": "[10]; without adjuvant", "result": "~4", "unit": "fold"},
      {"measurement": "muscle level of compound", "setting": "[7]; [14]", "result": "readily detected"},
      {"measurement": "muscle level of compound", "setting": "[7]; [15]", "result": "undetectable"}
    ]},
    {"smiles": "Cc1ccc2c(c1)nc(N)c1ncc(CCc3ccc(OCCCC(F)(F)P(=O)(O)O)cc3C)cc12", "note": "[Compound 5, 4-(4-(2-(5-amino-8-methylbenzo[f][1,7]naphthyridin-2-yl)ethyl)-3-methylphenoxy)-1,1-difluorobutylphosphonic acid]", "values": [
      {"measurement": "presence of compound in supernatant when aluminum hydroxide included (HPLC)", "setting": "[2]; pH 6.7, 10 mM histidine buffer, aluminium hydroxide 2 mg/mL", "result": "not present in the supernatant"},
      {"measurement": "presence of compound in supernatant when aluminum hydroxide included (HPLC)", "setting": "[2]; [12]", "result": "not present in the supernatant"}
    ]},
    {"smiles": "Cc1cc(OCCCC(F)(F)P(=O)(O)O)ccc1CCc1cnc2c(N)nc3cc(CCC(=O)O)ccc3c2c1", "note": "[Compound 16, 3-(5-amino-2-(4-(4,4-difluoro-4-phosphonobutoxy)-2-methylphenethyl)benzo[f][1,7]naphthyridin-8-yl)propanoic acid]", "values": [
      {"measurement": "compound in supernatant after addition of aluminum hydroxide (HPLC)", "setting": "[5]", "result": "no compound was observed in the supernatant"},
      {"measurement": "% bound to alum", "setting": "[6]; [13]", "result": 94.5, "unit": "%"},
      {"measurement": "serum concentration profile over 24 hours", "setting": "[11]; [16]", "result": "much flatter response which is sustained for a longer period"},
      {"measurement": "serum concentration profile over 24 hours", "setting": "[11]; unadsorbed (buffer alone)", "result": "high initial serum concentration which rapidly declines"},
      {"measurement": "muscle level of compound", "setting": "[7]; [14]", "result": "readily detected"},
      {"measurement": "muscle level of compound", "setting": "[7]; [15]", "result": "undetectable"}
    ]},
    {"smiles": "Cc1cc(OCCOCCC(F)(F)P(=O)(O)O)ccc1CCc1cnc2c(N)nc3cc(CCC(=O)O)ccc3c2c1", "note": "[Compound 19, 3-(5-amino-2-(4-(2-(3,3-difluoro-3-phosphonopropoxy)ethoxy)-2-methylphenethyl)benzo[f][1,7]naphthyridin-8-yl)propanoic acid]", "values": [
      {"measurement": "% bound to alum", "setting": "[6]; 5 h, 0.1 mg/mL, pH 6.8", "result": 96.0, "unit": "%"}
    ]}
  ]
}
